These results are taken from US20230192712A1, “MODULATORS OF THE INTEGRATED STRESS PATHWAY” (Calico Life Sciences LLC, priority 2017, published 2023).

As usually defined, the EC50 is the concentration giving half of the maximal effect.

SMILES strings stand for the structures. Bounds are passed on as bounds.

In this experiment the test system is HEK293T cells carrying the ATF4 luciferase reporter. As to the kind of experiment: ATF4-Luc assay (in vitro model of VWMD). Type of experiment: cell-based. Conditions: Homo sapiens, HEK-293T; HEK293T ATF4 5'-UTR firefly luciferase reporter cells, 1 μg/mL tunicamycin, 7 hours, One Glo luminescence. The procedure: In order to test exemplary compounds of the invention in a cellular context, a stable VWMD cell line was first constructed. The ATF4 reporter was prepared by fusing the human full-length ATF4 5′-UTR (NCBI Accession No. BC022088.2) in front of the firefly luciferase (FLuc) coding sequence lacking the initiator methionine as described in Sidrauski et al (eLife 2013). The construct was used to produce recombinant retroviruses using standard methods and the resulting viral supernatant was used to transduce HEK293T cells, which were then subsequently selected with puromycin to generate a stable cell line.
HEK293T cells carrying the ATF4 luciferase reporter were plated on polylysine coated 384-well plates (Greiner Bio-one) at 30,000 cells per well. Cells were treated the next day with 1 μg/mL tunicamycin and 200 nM of a compound of Formula (I) or Formula (II) for 7 hours. Luminescence was measured using One Glo (Promega) as specified by the manufacturer. Cells were maintained in DMEM with L-glutamine supplemented with 10% heat-inactivated FBS (Gibco) and Antibiotic-Antimycotic solution (Gibco).
Table 2 below summarizes the EC50 data obtained using the ATF4-Luc assay for exemplary compounds of the invention.
For orientation: Reporter assays use an easily measured gene product as a stand-in for the process of interest.
Turning to `O=C(COc1ccc(Cl)c(F)c1)NC12CC(C(=O)N3CC4(C3)CN(c3ccc(Cl)c(F)c3)C4)(C1)C2` [Compound 100, 2-(4-chloro-3-fluorophenoxy)-N-{3-[6-(4-chloro-3-fluorophenyl)-2,6-diazaspiro[3.3]heptane-2-carbonyl]bicyclo[1.1.1]pentan-1-yl}acetamide], the EC50 was > 2000 nM.
Regarding `O=C(COc1ccc(Cl)c(F)c1)NC12CC(C(=O)N3CCC(c4ccc(Cl)cc4)CC3)(C1)C2` [Compound 101, 2-(4-chloro-3-fluorophenoxy)-N-{3-[4-(4-chlorophenyl)piperidine-1-carbonyl]bicyclo[1.1.1]pentan-1-yl}acetamide], the EC50 fell in the range of 50 to 250 nM.
`O=C(COc1ccc(Cl)c(F)c1)NC12CCC(C(=O)N3CCC(c4ccc(Cl)cc4)CC3)(CC1)CC2` [Compound 102, 2-(4-chloro-3-fluorophenoxy)-N-{4-[4-(4-chlorophenyl)piperidine-1-carbonyl]bicyclo[2.2.2]octan-1-yl}acetamide]: the EC50 fell in the range of 50 to 250 nM.
On to `O=C(COc1ccc(Cl)c(F)c1)NC12CC(C(=O)N3CCC(c4ccc(Cl)cc4)C3)(C1)C2` (stereo not shown) [Compound 103, 2-(4-chloro-3-fluorophenoxy)-N-{3-[3-(4-chlorophenyl)pyrrolidine-1-carbonyl]bicyclo[1.1.1]pentan-1-yl}acetamide], for which the half-maximal effective concentration (EC50) was > 2000 nM.
With `O=C(COc1ccc(Cl)c(F)c1)NC12CCC(C(=O)N3CCC(c4ccc(Cl)cc4)C3)(CC1)CC2` (stereo not shown) [Compound 104, 2-(4-chloro-3-fluorophenoxy)-N-{4-[3-(4-chlorophenyl)pyrrolidine-1-carbonyl]bicyclo[2.2.2]octan-1-yl}acetamide], the EC50 is > 2000 nM.
Then `O=C(COc1ccc(Cl)c(F)c1)NC12CCC(C(=O)N3CC(c4ccc(Cl)cc4)C3)(CC1)CC2` [Compound 105, 2-(4-chloro-3-fluorophenoxy)-N-{4-[3-(4-chlorophenyl)azetidine-1-carbonyl]bicyclo[2.2.2]octan-1-yl}acetamide], with < 50 nM.
As to `O=C(COc1ccc(Cl)c(F)c1)NC12CC(C(=O)N3CC(c4ccc(Cl)cc4)C3)(C1)C2` [Compound 106, 2-(4-chloro-3-fluorophenoxy)-N-{3-[3-(4-chlorophenyl)azetidine-1-carbonyl]bicyclo[1.1.1]pentan-1-yl}acetamide], the EC50 is < 50 nM.
Then `O=C(COc1ccc(Cl)c(F)c1)NC12CCC(C(=O)N3CCN(c4ccc(Cl)cc4)CC3)(CC1)CC2` [Compound 107, 2-(4-chloro-3-fluorophenoxy)-N-{4-[4-(4-chlorophenyl)piperazine-1-carbonyl]bicyclo[2.2.2]octan-1-yl}acetamide], with 50 to 250 nM.
Take `O=C(COc1ccc(Cl)c(F)c1)NC12CCC(C(=O)N3CC(O)(c4ccc(Cl)cc4)C3)(CC1)[C@@H](O)C2` [Compound 108, 2-(4-chloro-3-fluorophenoxy)-N-{(3S)-4-[3-(4-chlorophenyl)-3-hydroxyazetidine-1-carbonyl]-3-hydroxybicyclo[2.2.2]octan-1-yl}acetamide]: the EC50 was 250 to 1000 nM.
Under `O=C(COc1ccc(Cl)c(F)c1)NC12CCC(C(=O)N3CC(O)(c4ccc(Cl)cc4)C3)(CC1)[C@H](O)C2` [Compound 109, 2-(4-chloro-3-fluorophenoxy)-N-{(3R)-4-[3-(4-chlorophenyl)-3-hydroxyazetidine-1-carbonyl]-3-hydroxybicyclo[2.2.2]octan-1-yl}acetamide] stands 50 to 250 nM; under `O=C(COc1ccc(Cl)c(F)c1)NC12CC(C(=O)N3CC(O)(c4ccc(Cl)cc4)C3)(C1)C2` [Compound 110, 2-(4-chloro-3-fluorophenoxy)-N-{3-[3-(4-chlorophenyl)-3-hydroxyazetidine-1-carbonyl]bicyclo[1.1.1]pentan-1-yl}acetamide], > 2000 nM.
For the compound `O=C(COc1ccc(Cl)c(F)c1)NC12CC(C(=O)N3Cc4ccc(Cl)cc4C3)(C1)C2` [Compound 111, N-[3-(5-chloro-1,3-dihydro-2H-isoindole-2-carbonyl)bicyclo[1.1.1]pentan-1-yl]-2-(4-chloro-3-fluorophenoxy)acetamide], the EC50 lay in the range of 250 to 1000 nM.
Consider `O=C(COc1ccc(Cl)c(F)c1)NC12CCC(C(=O)N3Cc4ccc(Cl)cc4C3)(CC1)CC2` [Compound 112, N-[4-(5-chloro-1,3-dihydro-2H-isoindole-2-carbonyl)bicyclo[2.2.2]octan-1-yl]-2-(4-chloro-3-fluorophenoxy)acetamide], for which the EC50 is > 2000 nM.
`O=C(COc1ccc(Cl)c(F)c1)NC12CCC(C(=O)N3CC(c4ccccc4)C3)(CC1)CC2O` (stereo not shown) [Compound 113, 2-(4-chloro-3-fluorophenoxy)-N-[2-hydroxy-4-(3-phenylazetidine-1-carbonyl)bicyclo[2.2.2]octan-1-yl]acetamide]: the EC50 fell in the range of 250 to 1000 nM.
As for `O=C(COc1ccc(Cl)c(F)c1)NC12CCC(C(=O)N3CCC(c4ccc(Cl)cc4)C3)(CC1)CC2O` (stereo not shown) [Compound 114, 2-(4-chloro-3-fluorophenoxy)-N-{4-[3-(4-chlorophenyl)pyrrolidine-1-carbonyl]-2-hydroxybicyclo[2.2.2]octan-1-yl}acetamide], the EC50 was > 2000 nM.
`O=C(COc1ccc(Cl)c(F)c1)NC12CCC(C(=O)N3CC(c4ccc(Cl)cc4)C3)(CC1)CC2O` (stereo not shown) [Compound 115, 2-(4-chloro-3-fluorophenoxy)-N-{4-[3-(4-chlorophenyl)azetidine-1-carbonyl]-2-hydroxybicyclo[2.2.2]octan-1-yl}acetamide]: the EC50 was < 50 nM.
